# Laboratory results from patent US20240239752A1, “BICYCLIC HETEROAROMATIC INHIBITORS OF KLK5” (BioCryst Pharmaceuticals, Inc., priority 2021, published 2024).
# Molecular target: T1, recombinant human KLK5 (Homo sapiens, UniProt Q9Y337)
# T1 construct: purchased Novoprotein or R&D Systems C415 or 1108-SE
# T1 sequence (Q9Y337 23-293): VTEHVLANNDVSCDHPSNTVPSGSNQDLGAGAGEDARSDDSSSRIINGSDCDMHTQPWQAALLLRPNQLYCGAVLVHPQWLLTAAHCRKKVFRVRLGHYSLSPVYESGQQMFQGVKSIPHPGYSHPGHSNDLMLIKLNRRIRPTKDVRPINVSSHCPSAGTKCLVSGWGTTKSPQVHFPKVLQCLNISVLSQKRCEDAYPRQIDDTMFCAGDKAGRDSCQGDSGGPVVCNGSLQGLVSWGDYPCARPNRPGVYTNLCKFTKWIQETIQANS
# Experiment: Kallikrein (KLK) 5 enzymatic assay (Boc-VPR-AMC fluorogenic substrate)
# Assay type: biochemical
# Details: recombinant human KLK5 0.1 μg/well, Boc-VPR-AMC 100 μM, pH 7.5, room temperature, 1% DMSO; tested a minimum of three times
# Summary of the method: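 Recombinant human KLK5 (0.1 μg/well) was preincubated with compound at room temperature in 0.1 M NaH2PO4, pH 7.5, 1% DMSO, then started with 100 μM Boc-VPR-AMC. The rate was followed at 380/460 nm, and IC50 came from percent inhibition relative to enzyme alone, with at least three runs.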
row,SMILES,IC50
1,"CCOC(=O)N1CC[C@H](n2nc(COc3cccc(C4CC4)c3CC(=O)O)c3cc(-c4ccc5ccnc(N)c5c4)ccc32)C1 [Compound 356e, (S)-2-(2-((5-(1-aminoisoquinolin-7-yl)-1-(1-(ethoxycarbonyl)pyrrolidin-3-yl)-1H-indazol-3-yl)methoxy)-6-cyclopropylphenyl)acetic acid]",< 1000 nM
2,"Nc1nccc2ccc(-c3ccc4c(c3)c(COc3ccccc3CC(=O)O)nn4C3CCCOC3)cc12 (centres unmarked) [Compound 283g, 2-(2-((5-(1-aminoisoquinolin-7-yl)-1-(tetrahydro-2H-pyran-3-yl)-1H-indazol-3-yl)methoxy)phenyl)acetic acid]",< 1000 nM
3,"Cn1nc(COc2ccccc2CC(=O)O)c2cc(-c3cccc(C(=N)N)c3)ccc21 [Compound 4e, 2-(2-((5-(3-carbamimidoylphenyl)-1-methyl-1H-indazol-3-yl)methoxy)phenyl)acetic acid]",< 1000 nM
4,"Nc1nccc2c(-c3ccc4c(c3)C(COc3ccccc3CC(=O)O)CC43CCCC3)cccc12 (centres unmarked) [Compound 403a, 2-(2-((5′-(1-aminoisoquinolin-5-yl)-2′,3′-dihydrospiro[cyclopentane-1,1′-inden]-3′-yl)methoxy)phenyl)acetic acid]",< 1000 nM
5,"Cn1c(=O)n(Cc2ccccc2CC(=O)O)c2cc(-c3cccc(C(N)=O)c3)ccc21 [Compound 219d, 2-(2-((6-(3-carbamoylphenyl)-3-methyl-2-oxo-2,3-dihydro-1H-benzo[d]imidazol-1-yl)methyl)phenyl)acetic acid]",1000 to 10000 nM
6,"Nc1nccc2c(-c3ccc4nn(C5CC(N)C5)c(COc5ccccc5CC(=O)O)c4c3)cccc12 (centres unmarked) [Compound 136b, 2-(2-((2-(3-aminocyclobutyl)-5-(1-aminoisoquinolin-5-yl)-2H-indazol-3-yl)methoxy)phenyl)acetic acid]",1000 to 10000 nM
7,"Nc1nccc2ccc(-c3ccc4c(c3)c(Cn3ccc5cccc(C(=O)O)c53)nn4C3CCOC3)cc12 (centres unmarked) [Compound 275b, 1-((5-(1-aminoisoquinolin-7-yl)-1-(tetrahydrofuran-3-yl)-1H-indazol-3-yl)methyl)-1H-indole-7-carboxylic acid]",> 10000 nM
8,"CCCn1nc(COc2ccccc2CC(=O)O)c2cc(-c3ccc4ccnc(N)c4c3)ccc21 [Compound 186e, 2-(2-((5-(1-aminoisoquinolin-7-yl)-1-propyl-1H-indazol-3-yl)methoxy)phenyl)acetic acid]",< 1000 nM
9,"CC(C)(C)OC(=O)N1CCC(n2nc(COc3ccccc3CC(=O)O)c3cc(-c4ccc5ccnc(N)c5c4)ccc32)C1 (centres unmarked) [Compound 87c, 2-(2-((5-(1-aminoisoquinolin-7-yl)-1-(1-(tert-butoxycarbonyl)pyrrolidin-3-yl)-1H-indazol-3-yl)methoxy)phenyl)acetic acid]",< 1000 nM
10,"COc1ccc(CC(=O)O)c(OC2c3cc(-c4ccc5ccnc(N)c5c4)ccc3CC2(C)C)c1 (centres unmarked) [Compound 441b, 2-(2-((6-(1-aminoisoquinolin-7-yl)-2,2-dimethyl-2,3-dihydro-1H-inden-1-yl)oxy)-4-methoxyphenyl)acetic acid]",1000 to 10000 nM
11,"N#Cc1cccc(OCc2nn(C3CCOC3)c3ccc(-c4ccc5ccnc(N)c5c4)cc23)c1CC(=O)O (centres unmarked) [Compound 292d, 2-(2-((5-(1-aminoisoquinolin-7-yl)-1-(tetrahydrofuran-3-yl)-1H-indazol-3-yl)methoxy)-6-cyanophenyl)acetic acid]",1000 to 10000 nM
12,"COc1ccc(CC(=O)O)c(O[C@@H]2CCc3ccc(-c4cccc5c(N)nccc45)cc32)c1 [Compound 420b, (R)-2-(2-((6-(1-aminoisoquinolin-5-yl)-2,3-dihydro-1H-inden-1-yl)oxy)-4-methoxyphenyl)acetic acid]",< 1000 nM
13,"Nc1nccc2ccc(-c3ccc4c(c3)c(COc3ccccc3CC(=O)O)nn4C3CCCC3)cc12 [Compound 42d, 2-(2-((5-(1-aminoisoquinolin-7-yl)-1-cyclopentyl-1H-indazol-3-yl)methoxy)phenyl)acetic acid]",< 1000 nM
14,"CC(C)OC(=O)N1CCC2(CC1)CC(Oc1ccccc1CC(=O)O)c1cc(-c3ccc4ccnc(N)c4c3)ccc12 (centres unmarked) [Compound 374c, 2-(2-((5-(1-aminoisoquinolin-7-yl)-1′-(isopropoxycarbonyl)-2,3-dihydrospiro[indene-1,4′-piperidin]-3-yl)oxy)phenyl)acetic acid]",< 1000 nM
15,"Nc1nccc2c(-c3ccc4nn(C5CCCCC5)c(COc5ccccc5CC(=O)O)c4c3)cccc12 [Compound 14f, 2-(2-((5-(1-aminoisoquinolin-5-yl)-2-cyclohexyl-2H-indazol-3-yl)methoxy)phenyl)acetic acid]",1000 to 10000 nM
16,"Nc1nccc2ccc(-c3ccc4c(c3)C(COc3ccccc3CC(=O)O)CC43CCCC3)cc12 (centres unmarked) [Compound 402a, 2-(2-((5′-(1-aminoisoquinolin-7-yl)-2′,3′-dihydrospiro[cyclopentane-1,1′-inden]-3′-yl)methoxy)phenyl)acetic acid]",1000 to 10000 nM

row,SMILES,IC50
1,"CCn1nc(COc2ccccc2CC(=O)O)c2cc(-c3ccc4ccnc(N)c4c3)ccc21 [Compound 179b, 2-(2-((5-(1-aminoisoquinolin-7-yl)-1-ethyl-1H-indazol-3-yl)methoxy)phenyl)acetic acid]",< 1000 nM
2,"CC(C)n1nc(COc2ccccc2CC(=O)O)c2cc(-c3ccc(C(=N)N)cc3)ccc21 [Compound 2g, 2-(2-((5-(4-carbamimidoylphenyl)-1-isopropyl-1H-indazol-3-yl)methoxy)phenyl)acetic acid]",> 10000 nM
3,"COC(=O)N1CCC2(CC1)CC(Oc1ccccc1CC(=O)O)c1cc(-c3cccc4c(N)nccc34)ccc12 (centres unmarked) [Compound 371b, 2-(2-((5-(1-aminoisoquinolin-5-yl)-1′-(methoxycarbonyl)-2,3-dihydrospiro[indene-1,4′-piperidin]-3-yl)oxy)phenyl)acetic acid]",< 1000 nM
4,"CC(C)n1nc(COc2ccccc2CC(=O)O)c2cc(-c3ccc4ccnc(N)c4c3)ccc21 [Compound 100b, 2-(2-((5-(1-aminoisoquinolin-7-yl)-1-isopropyl-1H-indazol-3-yl)methoxy)phenyl)acetic acid]",< 1000 nM
5,"CC(C)n1nc(COc2ccccc2CC(=O)O)c2cc(-c3ccc4cc(N)ccc4c3)ccc21 [Compound 36c, 2-(2-((5-(6-aminonaphthalen-2-yl)-1-isopropyl-1H-indazol-3-yl)methoxy)phenyl)acetic acid]",> 10000 nM
6,"Cc1ccc(CC(=O)O)c(OCc2nn(C(C)C)c3ccc(-c4ccc5ccnc(N)c5c4)cc23)c1 [Compound 62c, 2-(2-((5-(1-aminoisoquinolin-7-yl)-1-isopropyl-1H-indazol-3-yl)methoxy)-4-methylphenyl)acetic acid]",< 1000 nM
7,"COc1cc(-c2ccc3ccnc(N)c3c2)cc2c(COc3ccccc3CC(=O)O)coc12 [Compound 229f, 2-(2-((5-(1-aminoisoquinolin-7-yl)-7-methoxybenzofuran-3-yl)methoxy)phenyl)acetic acid]",1000 to 10000 nM
8,"COc1ccc(CC(=O)O)c(OCc2nn(C)c3ccc(-c4cccc5c(N)nccc45)cc23)c1 [Compound 72b, 2-(2-((5-(1-aminoisoquinolin-5-yl)-1-methyl-1H-indazol-3-yl)methoxy)-4-methoxyphenyl)acetic acid]",< 1000 nM
9,"Nc1nccc2c(-c3ccc4c(c3)c(COc3ccccc3CC(=O)O)nn4-c3ccccc3)cccc12 [Compound 202b, 2-(2-((5-(1-aminoisoquinolin-5-yl)-1-phenyl-1H-indazol-3-yl)methoxy)phenyl)acetic acid]",< 1000 nM
10,"Nc1nccc2ccc(-c3ccc4c(c3)c(COc3ccccc3CC(=O)O)nn4C3CCN(CCO)C3)cc12 (centres unmarked) [Compound 299b, 2-(2-((5-(1-aminoisoquinolin-7-yl)-1-(1-(2-hydroxyethyl)pyrrolidin-3-yl)-1H-indazol-3-yl)methoxy)phenyl)acetic acid]",< 1000 nM
11,"Nc1nccc2c(-c3ccc4c(c3)c(COc3ccccc3CC(=O)O)nn4C3CCN(CCO)C3)cccc12 (centres unmarked) [Compound 298c, 2-(2-((5-(1-aminoisoquinolin-5-yl)-1-(1-(2-hydroxyethyl)pyrrolidin-3-yl)-1H-indazol-3-yl)methoxy)phenyl)acetic acid]",< 1000 nM
12,"COc1c(CN)cccc1-c1cc(OC)c2occ(COc3ccccc3CC(=O)O)c2c1 [Compound 324d, 2-(2-((5-(3-(aminomethyl)-2-methoxyphenyl)-7-methoxybenzofuran-3-yl)methoxy)phenyl)acetic acid]",> 10000 nM
13,"Nc1nccc2c(-c3ccc4c(c3)C(Oc3ccccc3CC(=O)O)c3ccccc3-4)cccc12 (centres unmarked) [Compound 210b, 2-(2-((2-(1-aminoisoquinolin-5-yl)-9H-fluoren-9-yl)oxy)phenyl)acetic acid]",< 1000 nM
14,"COC(=O)Cc1ccc(OC)cc1OCc1c2cc(-c3ccc4ccnc(N)c4c3)ccc2nn1C1CCOC1 (centres unmarked) [Compound 13d, methyl 2-(2-((5-(1-aminoisoquinolin-7-yl)-2-(tetrahydrofuran-3-yl)-2H-indazol-3-yl)methoxy)-4-methoxyphenyl)acetate]",> 10000 nM
15,"CC(C)n1nc(COc2ccccc2CC(=O)O)c2cc(-c3ccc4[nH]c(N)nc4c3)ccc21 [Compound 26c, 2-(2-((5-(2-amino-1H-benzo[d]imidazol-5-yl)-1-isopropyl-1H-indazol-3-yl)methoxy)phenyl)acetic acid]",1000 to 10000 nM
16,"Nc1nccc2c(-c3ccc4c(c3)c(COc3ccccc3CC(=O)O)nn4C3CCOC3)cccc12 (centres unmarked) [Compound 249b, 2-(2-((5-(1-aminoisoquinolin-5-yl)-1-(tetrahydrofuran-3-yl)-1H-indazol-3-yl)methoxy)phenyl)acetic acid]",< 1000 nM
